According to patent publication US20090311344A1, “Dosing Regimen” (priority 2008, published 2009):
“Also recorded” adds a separate entry of the source.

Tests used:
[1] = test system: platelets, reticulocytes, hematocrit; assay: CBC analysis and reticulocyte counts in HT-29 tumor-bearing mice (Groups 6-9); assay type: in vivo, athymic nude mice
Procedure: Five groups (n=10) of female athymic nude mice (Harlan) bearing established (˜100 mm^3) HT-29 human colon carcinomas on Day 1. Groups 6-9 (n=20) were included for blood sampling and received the same treatment as Groups 1-4, respectively. Treatment effects on the growth of tumors were evaluated by tumor growth delay (TGD), which is the difference between median time to endpoint (TTE) tumor size in a treatment group compared to a control group. […]
Group 1 mice (n=10) were untreated tumor growth controls. Group 2 mice (n=10) received 60 mg/kg carboplatin administered intraperitoneally (i.p.) on Days 1, 2, 12, and 13. Group 3 mice (n=10) received 0.2 mg/kg of the TPO mimetic peptide compound administered intravenously (i.v.) via tail vein on Days 2 and 13. Groups 4 and 5 received the combination of carboplatin (60 mg/kg i.p. on Days 1, 2, 12, and 13) and 0.2 mg/kg of the TPO mimetic peptide compound on Days 2, 13 and Days 2, 13, 23, respectively, administered intravenously (i.v.) one hour after carboplatin dosing. Groups 6-9 (n=20 each) were included for blood sampling and received the same treatments as Groups 1-4, respectively. For all groups, each dose of drug was given in a volume of 0.2 mL per 20 g of body weight (10 mL/kg), and was scaled to the body weight of each animal.
[…] Blood was collected into EDTA tubes, and complete blood counts (CBC) with differential were determined using a Cell-Dyn® 3700 System (Abbott Diagnostics) for automated hematology analyses. Reticulocyte values were determined. In addition, for Groups 1-5, five animals per group were euthanized at or just after endpoint by terminal cardiac puncture under CO2 anesthesia, and gross necropsies were performed. Blood samples were collected into EDTA tubes, and CBC with differential and reticulocyte values were performed as previously described. All other animals in Groups 1-5 were euthanized at endpoint without sampling.

[2] = Single dose study in healthy subjects: pharmacokinetics; assay type: in vivo, human
Procedure: The median tmax of the TPO mimetic peptide compound ranged between 0.09 to 2 hours following single i.v. administration. […] However, the elimination phase appeared consistent across the dose range.

[3] = test system: chemotherapy-induced thrombocytopenia and anemia; assay: murine models of chemotherapy-induced thrombocytopenia (CIT) and anemia; assay type: in vivo
Procedure: The TPO mimetic peptide compound has an estimated EC50 of approximately 5 pM (0.2 ng/mL) in a human TPO (huTPO) receptor assay in vitro and stimulates megakaryocyte lineage specific growth and differentiation in vivo.

platelet count = assay: Multiple dose study in cancer subjects receiving platinum-based chemotherapy: platelet counts; assay type: in vivo, human; details: for Maximum Platelet Counts, Geometric Mean: in 10^9/L (unit assumed)
Text: (§1) A total of 7 subjects were excluded from the preliminary statistical analysis of Day 42 platelet count data and 9 subjects were excluded from the preliminary statistical analysis of Day 42 hemoglobin data due to either incorrect randomization, platelet transfusion, not administered the 2nd dose of study medication, or lost to follow-up.

hemoglobin = assay: Multiple dose study in cancer subjects receiving platinum-based chemotherapy: hemoglobin; assay type: in vivo, human; details: Day 42
Text: as §1

Methoxypolyethyleneglycol20000-propionyl-L-Isoleucyl-L-Glutamyl-Glycyl-L-Prolyl-L-Threonyl-L-Leucyl-L-Arginyl-L-Glutaminyl-L-2-Naphthylalanyl-L-Leucyl-L-Alanyl-L-Alanyl-L-Arginyl-Sarcosyl-Ne-(methoxypolyethyleneglycol20000-propionyl-L-Isoleucyl-L-Glutamyl-Glycyl-L-Prolyl-L-Threonyl-L-Leucyl-L-Arginyl-L-Glutaminyl-L-2-Naphthylalanyl-L-Leucyl-L-Alanyl-L-Alanyl-L-Arginyl-Sarcosyl-)-Lysinamide [TPO mimetic peptide compound]
mean reticulocyte values compared to Group 6 controls ([1]; Group 8, all time points): slightly higher
mean hematocrit (HCT) values compared to untreated mice (Group 6) ([1]; Groups 7-9): similar
mean platelet counts compared to untreated Group 6 controls ([1]; Groups 7-9, regimens as Groups 2-4, Days 10, 13, 21, and 23): higher mean platelet counts at all four time points
Cmax dose proportionality [2]: increased approximately dose proportionally
mean terminal half-life ([2]; 3 μg/kg, not well defined): approximately 36 hours
AUC dose proportionality ([2]; 1.5- to 3-μg/kg dose range): no apparent dose proportionality
effect of administration time relative to chemotherapy ([3]; 1 hour after chemotherapy compared with dosing after 24 or 96 hours): more effective
doses at which the anti-anemic effect was observed ([3]; following carboplatin treatment): ≥ 0.03 mg/kg
chemotherapy-induced reduction in Hb, hematocrit and RBC count ([3]; mouse, in vivo): prevented
fibrinogen-positive microangiopathic lesions in small blood vessels in the brain ([3]; mouse, in vivo): marked reduction
minimum effective dose ([3]; murine models of CIT, single dose, Day 12): 0.1 mg/kg
myeloprotective effect in murine models of CIT ([3]; single dose, Day 12): reducing the severity and duration of CIT in a dose-dependent manner
course of platelets (platelet count; 1.5 μg/kg dose): continued to decline up to Day 15
platelets as compared to the placebo subjects (platelet count; 1.5 μg/kg dose): no apparent difference
day of mean peak platelets (platelet count; 3.0 μg/kg dose): 15 days
subjects with platelet increase of more than 3 times the baseline (≧3-fold) (platelet count; 1.5 and 2.25 μg/kg dose): no subjects; also recorded: none of the subjects
day of peak platelets (platelet count; 2.25 and 1.5 μg/kg doses): 21 days
platelet nadir and peak platelet counts relative to placebo (platelet count; 2.25 and 3 μg/kg dose): approximately 2 fold
day of mean platelet nadir (platelet count; 2.25 and 3 μg/kg dose groups): 10 days
platelet count as compared with placebo (platelet count; 2.25 and 3 μg/kg doses): reduction in chemotherapy-induced decline in platelets and faster recovery relative to placebo; also recorded: increased platelet count
Maximum Platelet Counts, GMR (Active/Placebo) (platelet count; Across, 1.5 μg/kg): 1.0
Minimum Platelet Counts, GMR (Active/Placebo) (platelet count; Across, 1.5 μg/kg): 0.6
Minimum Platelet Counts, Geometric Mean (platelet count; Across, 1.5 μg/kg): 33.99
Maximum Platelet Counts, Geometric Mean (platelet count; Across, 1.5 μg/kg): 371.53
Maximum Platelet Counts, GMR (Active/Placebo) (platelet count; Across, 2.25 μg/kg): 1.6
Minimum Platelet Counts, GMR (Active/Placebo) (platelet count; Across, 2.25 μg/kg): 2.7
Minimum Platelet Counts, Geometric Mean (platelet count; Across, 2.25 μg/kg): 163.71
Maximum Platelet Counts, Geometric Mean (platelet count; Across, 2.25 μg/kg): 570.39
Maximum Platelet Counts, GMR (Active/Placebo) (platelet count; Across, 3.0 μg/kg): 1.8
Minimum Platelet Counts, GMR (Active/Placebo) (platelet count; Across, 3.0 μg/kg): 2.0
Minimum Platelet Counts, Geometric Mean (platelet count; Across, 3.0 μg/kg): 121.61
Maximum Platelet Counts, Geometric Mean (platelet count; Across, 3.0 μg/kg): 633.09
Maximum Platelet Counts, GMR (Active/Placebo) (platelet count; Cycle 1, 1.5 μg/kg): 1.1
Minimum Platelet Counts, GMR (Active/Placebo) (platelet count; Cycle 1, 1.5 μg/kg): 0.5
Minimum Platelet Counts, Geometric Mean (platelet count; Cycle 1, 1.5 μg/kg): 47.01
Maximum Platelet Counts, Geometric Mean (platelet count; Cycle 1, 1.5 μg/kg): 331.25
Maximum Platelet Counts, GMR (Active/Placebo) (platelet count; Cycle 1, 2.25 μg/kg): 1.8
Minimum Platelet Counts, GMR (Active/Placebo) (platelet count; Cycle 1, 2.25 μg/kg): 2.3
Minimum Platelet Counts, Geometric Mean (platelet count; Cycle 1, 2.25 μg/kg): 213.46
Maximum Platelet Counts, Geometric Mean (platelet count; Cycle 1, 2.25 μg/kg): 557.78
Maximum Platelet Counts, GMR (Active/Placebo) (platelet count; Cycle 1, 3.0 μg/kg): 2.1
Minimum Platelet Counts, GMR (Active/Placebo) (platelet count; Cycle 1, 3.0 μg/kg): 2.0
Minimum Platelet Counts, Geometric Mean (platelet count; Cycle 1, 3.0 μg/kg): 191.17
Maximum Platelet Counts, Geometric Mean (platelet count; Cycle 1, 3.0 μg/kg): 641.56
Maximum Platelet Counts, GMR (Active/Placebo) (platelet count; Cycle 2, 1.5 μg/kg): 1.0
Minimum Platelet Counts, GMR (Active/Placebo) (platelet count; Cycle 2, 1.5 μg/kg): 1.0
Minimum Platelet Counts, Geometric Mean (platelet count; Cycle 2, 1.5 μg/kg): 75.10
Maximum Platelet Counts, Geometric Mean (platelet count; Cycle 2, 1.5 μg/kg): 290.55
Maximum Platelet Counts, GMR (Active/Placebo) (platelet count; Cycle 2, 2.25 μg/kg): 1.4
Minimum Platelet Counts, GMR (Active/Placebo) (platelet count; Cycle 2, 2.25 μg/kg): 2.2
Minimum Platelet Counts, Geometric Mean (platelet count; Cycle 2, 2.25 μg/kg): 175.08
Maximum Platelet Counts, Geometric Mean (platelet count; Cycle 2, 2.25 μg/kg): 397.37
Maximum Platelet Counts, GMR (Active/Placebo) (platelet count; Cycle 2, 3.0 μg/kg): 1.4
Minimum Platelet Counts, GMR (Active/Placebo) (platelet count; Cycle 2, 3.0 μg/kg): 2.2
Minimum Platelet Counts, Geometric Mean (platelet count; Cycle 2, 3.0 μg/kg): 170.16
Maximum Platelet Counts, Geometric Mean (platelet count; Cycle 2, 3.0 μg/kg): 401.20
platelet elevations in the second cycle (platelet count; all subjects): below 3 times the baseline
day of maximum effect on platelet count after administration (platelet count; human, in vivo): 15 days
increase in platelet count relative to baseline (platelet count; second cycle, 3.0 μg/kg dose): approximately 2 fold
Change From Baseline in Hemoglobin, LS Mean (SE) (hemoglobin; 1.5 μg/kg): −1.63 (0.50)
Change From Baseline in Hemoglobin, Diff of LS Mean (SE) vs Placebo (hemoglobin; 2.25 μg/kg): 0.57 (0.57)
Change From Baseline in Hemoglobin, LS Mean (SE) (hemoglobin; 2.25 μg/kg): −1.60 (0.42)
